Laboratory results taken from ChEMBL document CHEMBL5543147, “Discovery and Characterization of a Novel Cereblon-Recruiting PRC1 Bridged PROTAC Degrader” (J Med Chem, 2024).
The source made the active and inactive calls.

How the values were obtained:
Type in all cases: cell-based
[1] = molecular target: Protein cereblon/Polycomb complex protein BMI-1 (Homo sapiens, UniProt Q96SW2+P35226); test: PROTAC activity at […] in human K562 cells assessed as degradation of BMI1 protein expression at 10 uM incubated for 20 hrs in presence of pomalidomide by Western blotting analysis
Protein cereblon/Polycomb complex protein BMI-1, sequence (P35226 whole entry, looked up): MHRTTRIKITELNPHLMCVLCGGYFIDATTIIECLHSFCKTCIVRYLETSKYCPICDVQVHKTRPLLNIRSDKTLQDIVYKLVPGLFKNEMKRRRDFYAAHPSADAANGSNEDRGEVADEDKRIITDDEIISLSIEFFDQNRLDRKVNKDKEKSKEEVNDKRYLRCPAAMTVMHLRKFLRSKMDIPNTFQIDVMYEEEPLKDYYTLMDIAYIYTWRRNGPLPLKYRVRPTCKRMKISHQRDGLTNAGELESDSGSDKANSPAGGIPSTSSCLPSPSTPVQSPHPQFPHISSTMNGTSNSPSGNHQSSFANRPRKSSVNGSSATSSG
Protein cereblon/Polycomb complex protein BMI-1, sequence (Q96SW2 whole entry, looked up): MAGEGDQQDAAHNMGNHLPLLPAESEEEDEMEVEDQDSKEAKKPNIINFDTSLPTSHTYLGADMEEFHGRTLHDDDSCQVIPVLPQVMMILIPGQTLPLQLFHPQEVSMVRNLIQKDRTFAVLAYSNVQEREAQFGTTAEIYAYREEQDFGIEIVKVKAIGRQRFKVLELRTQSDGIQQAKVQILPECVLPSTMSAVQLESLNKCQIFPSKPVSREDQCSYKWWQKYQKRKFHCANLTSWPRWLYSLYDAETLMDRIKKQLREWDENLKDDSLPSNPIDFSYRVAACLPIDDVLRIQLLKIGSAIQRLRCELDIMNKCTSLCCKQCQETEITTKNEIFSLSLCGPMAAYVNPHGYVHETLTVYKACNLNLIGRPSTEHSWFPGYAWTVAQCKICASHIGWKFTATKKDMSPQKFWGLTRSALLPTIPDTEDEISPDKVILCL

[2] = tested on: PC-3M; test: Induction of PRC2 degradation in human PC-3M cells assessed as reduction of H3K27me3 chromatin mark at 5 uM incubated for 24 hrs by Western blotting analysis
[3] = molecular target: Protein cereblon/Histone-lysine N-methyltransferase EZH2 (Homo sapiens) (UniProt Q15910+Q96SW2); test: PROTAC activity at CRBN/EZH2 in human MDA-MB-468 cells assessed as degradation of EZH2 protein expression at 5 uM incubated for 24 hrs by Western blotting analysis
Protein cereblon/Histone-lysine N-methyltransferase EZH2 (Homo sapiens), sequence (Q15910 whole entry, looked up): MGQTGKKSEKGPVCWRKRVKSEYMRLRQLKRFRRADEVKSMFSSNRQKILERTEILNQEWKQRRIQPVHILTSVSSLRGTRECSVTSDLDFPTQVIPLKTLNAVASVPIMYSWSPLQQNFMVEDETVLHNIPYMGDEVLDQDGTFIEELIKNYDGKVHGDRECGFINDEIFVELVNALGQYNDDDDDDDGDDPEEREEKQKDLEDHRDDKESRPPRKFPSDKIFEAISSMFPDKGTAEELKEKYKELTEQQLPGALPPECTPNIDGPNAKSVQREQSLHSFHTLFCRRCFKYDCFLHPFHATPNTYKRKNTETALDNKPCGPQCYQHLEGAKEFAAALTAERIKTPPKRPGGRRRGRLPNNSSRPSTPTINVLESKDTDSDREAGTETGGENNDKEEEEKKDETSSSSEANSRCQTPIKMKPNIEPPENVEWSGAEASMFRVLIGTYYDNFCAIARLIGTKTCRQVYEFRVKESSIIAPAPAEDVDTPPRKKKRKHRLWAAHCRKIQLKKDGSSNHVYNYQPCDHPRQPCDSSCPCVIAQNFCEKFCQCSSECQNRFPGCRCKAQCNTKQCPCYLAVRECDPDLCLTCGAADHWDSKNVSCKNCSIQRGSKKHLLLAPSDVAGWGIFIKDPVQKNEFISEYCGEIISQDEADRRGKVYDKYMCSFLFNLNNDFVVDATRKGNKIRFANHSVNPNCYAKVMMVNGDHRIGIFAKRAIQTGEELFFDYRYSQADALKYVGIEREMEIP
Protein cereblon/Histone-lysine N-methyltransferase EZH2 (Homo sapiens), sequence (Q96SW2 whole entry, looked up): as the sequence (Q96SW2 whole entry, looked up) above

Measured: Activity

O=C(CNc1cccc2c1C(=O)N(C1CCC(=O)NC1=O)C2=O)NCCCCN1CCN(c2ccc(-c3cnc(NCc4ccco4)n4cnnc34)cc2)CC1 (stereo not drawn)
inactive: [1] | [2] | [3]
